One assay addresses T1, recombinant human PFKM (Homo sapiens, UniProt P08237).
T1 sequence (P08237 2-780): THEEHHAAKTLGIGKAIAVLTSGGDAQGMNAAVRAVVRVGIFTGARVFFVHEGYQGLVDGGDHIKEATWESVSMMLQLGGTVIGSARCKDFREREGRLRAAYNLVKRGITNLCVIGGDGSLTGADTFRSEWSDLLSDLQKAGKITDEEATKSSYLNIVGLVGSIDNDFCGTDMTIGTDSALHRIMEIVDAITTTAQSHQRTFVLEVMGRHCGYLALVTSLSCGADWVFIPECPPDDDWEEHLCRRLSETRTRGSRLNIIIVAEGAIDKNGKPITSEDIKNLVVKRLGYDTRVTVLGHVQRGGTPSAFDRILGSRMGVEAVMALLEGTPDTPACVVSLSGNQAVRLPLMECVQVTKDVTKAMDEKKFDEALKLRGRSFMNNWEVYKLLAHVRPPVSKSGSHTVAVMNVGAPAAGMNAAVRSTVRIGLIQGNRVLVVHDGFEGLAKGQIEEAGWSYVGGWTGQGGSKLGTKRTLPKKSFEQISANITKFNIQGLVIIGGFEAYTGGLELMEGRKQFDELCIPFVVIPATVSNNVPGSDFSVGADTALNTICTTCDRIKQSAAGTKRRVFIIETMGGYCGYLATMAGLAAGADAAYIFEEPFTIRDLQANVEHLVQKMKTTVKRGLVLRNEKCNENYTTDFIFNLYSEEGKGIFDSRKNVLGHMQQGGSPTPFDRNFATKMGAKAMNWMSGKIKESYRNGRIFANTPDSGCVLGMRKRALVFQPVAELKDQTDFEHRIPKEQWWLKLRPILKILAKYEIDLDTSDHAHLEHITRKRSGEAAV
Kind of assay: PFKM enzymatic activity inhibition. It counts as biochemical.

In a further assay the target is T2, recombinant PFKL (Homo sapiens, UniProt P17858).
T2 sequence (P17858 2-780): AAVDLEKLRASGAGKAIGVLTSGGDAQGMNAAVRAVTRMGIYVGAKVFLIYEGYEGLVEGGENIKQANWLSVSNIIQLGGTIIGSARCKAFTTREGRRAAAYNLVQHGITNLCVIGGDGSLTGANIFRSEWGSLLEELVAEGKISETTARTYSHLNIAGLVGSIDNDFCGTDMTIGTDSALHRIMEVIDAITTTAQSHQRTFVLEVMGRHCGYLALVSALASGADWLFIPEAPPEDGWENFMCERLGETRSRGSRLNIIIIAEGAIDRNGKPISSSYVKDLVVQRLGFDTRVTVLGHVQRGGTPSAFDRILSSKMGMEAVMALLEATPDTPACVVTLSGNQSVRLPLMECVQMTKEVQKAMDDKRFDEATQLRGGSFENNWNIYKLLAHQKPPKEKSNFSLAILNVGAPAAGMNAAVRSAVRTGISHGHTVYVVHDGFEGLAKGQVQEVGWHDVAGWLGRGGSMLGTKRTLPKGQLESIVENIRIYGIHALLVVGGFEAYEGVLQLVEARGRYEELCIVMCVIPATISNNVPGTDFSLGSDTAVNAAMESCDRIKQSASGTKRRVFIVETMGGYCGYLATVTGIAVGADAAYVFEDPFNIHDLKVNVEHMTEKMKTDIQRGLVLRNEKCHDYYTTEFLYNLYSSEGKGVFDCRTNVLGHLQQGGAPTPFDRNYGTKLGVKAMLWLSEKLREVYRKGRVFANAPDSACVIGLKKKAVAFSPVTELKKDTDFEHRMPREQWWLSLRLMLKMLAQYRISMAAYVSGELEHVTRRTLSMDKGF
Kind of assay: PFKL enzymatic activity inhibition. It counts as biochemical.

By IC50 is commonly meant the midpoint of a concentration-inhibition curve.

Consider `C#CCNC(=O)[C@]1(C)CC[C@]2(C)CC[C@]3(C)C4=CC=C5C(=CC(=O)C(O)=C5C)[C@]4(C)CC[C@@]3(C)[C@@H]2C1` [1-85], for which the IC50 on recombinant human PFKM was determined as 0.507 µM.
Same read-out and setting: the same measure for `O=C(c1cccs1)c1no[n+]([O-])c1C(=O)c1cccs1` [3-79]: 0.292 ± 0.0208 µM.
On to `CC1=C(O)C(=O)C=C2C1=CC=C1[C@@]2(C)CC[C@@]2(C)[C@@H]3C[C@](C)(C(=O)O)CC[C@]3(C)CC[C@]12C` [celastrol], for which the figures for the IC50 on recombinant PFKL and on recombinant human PFKM were 0.916 ± 0.0357 µM and 0.349 µM, respectively.

The record behind these values is article doi:10.1101/2020.09.06.284752v1 (biorxiv, 2020).
